Source: ChEMBL document CHEMBL5236655, “Role of symmetry in 3,3-diphenyl-1,3-dihydroindol-2-one derivatives as inhibitors of translation initiation” (Bioorg Med Chem Lett, 2023)
pIC50: −log10 of the molar value.

Key:
[1] = molecular target: Interferon-induced, double-stranded RNA-activated protein kinase (Homo sapiens) (UniProt P19525); experiment: Induction of eIF2alpha phosphorylation (unknown origin) assessed as fold increase in ATF-4 stimulation at 20 uM by dual luciferase reporter assay; settings: filed as activator
Chain of Interferon-induced, double-stranded RNA-activated protein kinase (Homo sapiens) (P19525 whole entry): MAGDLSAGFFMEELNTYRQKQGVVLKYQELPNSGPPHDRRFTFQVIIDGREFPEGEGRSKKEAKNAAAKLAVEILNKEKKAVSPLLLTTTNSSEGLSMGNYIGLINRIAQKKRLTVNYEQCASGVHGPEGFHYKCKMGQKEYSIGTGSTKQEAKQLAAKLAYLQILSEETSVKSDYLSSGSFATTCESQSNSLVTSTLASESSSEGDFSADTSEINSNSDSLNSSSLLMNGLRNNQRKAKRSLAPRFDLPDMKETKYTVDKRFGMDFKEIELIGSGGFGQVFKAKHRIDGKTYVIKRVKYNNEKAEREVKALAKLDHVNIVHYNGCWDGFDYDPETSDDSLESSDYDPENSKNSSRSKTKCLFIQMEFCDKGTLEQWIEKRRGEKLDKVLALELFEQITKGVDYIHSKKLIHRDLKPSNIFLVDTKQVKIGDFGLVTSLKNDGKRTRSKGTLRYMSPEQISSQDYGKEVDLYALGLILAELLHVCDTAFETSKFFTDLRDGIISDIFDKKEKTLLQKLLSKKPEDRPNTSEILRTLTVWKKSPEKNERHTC

[2] = Antiproliferative activity against human CRL-2351 cells incubated for 5 days by SRB assay; assay type: functional, cell-based; settings: CRL-2351, 120 h
[3] = Antiproliferative activity against human CRL-2813 cells incubated for 5 days by SRB assay; assay type: functional, cell-based; settings: CRL2813, 120 h
[4] = molecular target: Interferon-induced, double-stranded RNA-activated protein kinase (Homo sapiens) (UniProt P19525); experiment: Induction of eIF2alpha phosphorylation (unknown origin) assessed as fold increase in ATF-4 stimulation at 10 uM by dual luciferase reporter assay
[5] = molecular target: Interferon-induced, double-stranded RNA-activated protein kinase (Homo sapiens) (UniProt P19525); experiment: Induction of eIF2alpha phosphorylation (unknown origin) assessed as fold increase in ATF-4 stimulation at 40 uM by dual luciferase reporter assay; settings: filed as activator
[6] = molecular target: Interferon-induced, double-stranded RNA-activated protein kinase (Homo sapiens) (UniProt P19525); experiment: Induction of eIF2alpha phosphorylation in human CRL-2813 cells assessed as fold increase in CHOP expression incubated for 6 hrs by RT-PCR analysis; assay type: cell-based; settings: filed as activator, dose 10.0 µM
[7] = molecular target: Interferon-induced, double-stranded RNA-activated protein kinase (Homo sapiens) (UniProt P19525); experiment: Induction of eIF2alpha phosphorylation (unknown origin) assessed as fold increase in ATF-4 stimulation at 80 uM by dual luciferase reporter assay; settings: filed as activator
[8] = molecular target: Interferon-induced, double-stranded RNA-activated protein kinase (Homo sapiens) (UniProt P19525); experiment: Induction of eIF2alpha phosphorylation (unknown origin) assessed as fold increase in ATF-4 stimulation at 2.5 uM by dual luciferase reporter assay; settings: filed as activator
[9] = molecular target: Interferon-induced, double-stranded RNA-activated protein kinase (Homo sapiens) (UniProt P19525); experiment: Induction of eIF2alpha phosphorylation (unknown origin) assessed as fold increase in ATF-4 stimulation at 5 uM by dual luciferase reporter assay; settings: filed as activator

Row | Compound | fold change (FC) [5] | pIC50 [2] | pIC50 [3] | other results
1 | CCN(CC)CCOc1ccc(C(C)(C)C)cc1C1(c2cc(C(C)(C)C)ccc2O)C(=O)Nc2ccccc21 (stereo not drawn) |  | 6.22 | 5.82 | fold change (FC) [1]: 16.7
2 | CC(C)(C)c1ccc(O)c(C2(c3cc(C(C)(C)C)ccc3OCCN3CCCC3)C(=O)Nc3ccccc32)c1 (stereo not drawn) |  | 6.00 | 4.97 | fold change (FC) ([4]; filed as activator): 2.73
3 | CC(C)(C)c1ccc(O)c(C2(c3cc(C(C)(C)C)ccc3O)C(=O)Nc3ccccc32)c1 |  | 5.55 | 4.99 | fold change (FC) ([4]; filed as activator): 5.2; fold change (FC) [6]: 3
4 | CN(C)CCOc1ccc(C(C)(C)C)cc1C1(c2cc(C(C)(C)C)ccc2O)C(=O)Nc2ccccc21 (stereo not drawn) |  | 5.72 | 5.92 | fold change (FC) [1]: 4.65
5 | CN(C)CCOc1ccc(C(C)(C)C)cc1C1(c2cc(C(C)(C)C)ccc2OCCN(C)C)C(=O)Nc2ccccc21 | 1.34 | 4.99 | 4.90 | 
6 | CC(C)(C)c1ccc(OCCN2CCCCC2)c(C2(c3cc(C(C)(C)C)ccc3OCCN3CCCCC3)C(=O)Nc3ccccc32)c1 |  | 5.67 | 4.94 | fold change (FC) [7]: 5.91
7 | CCN(CC)CCOc1ccc(C(C)(C)C)cc1C1(c2cc(C(C)(C)C)ccc2OCCN(CC)CC)C(=O)Nc2ccccc21 |  | ≥ 6.27 | 6.00 | fold change (FC) [4]: < 0.54
8 | CN(C)CCOc1ccc(C(C)(C)C)cc1C1(c2cc(C(C)(C)C)ccc2OCCN(C)C)C(=O)N(CCN(C)C)c2ccccc21 |  | 6.30 | 6.15 | fold change (FC) [8]: 16.8
9 | CN1CCN(CCOc2ccc(C(C)(C)C)cc2C2(c3cc(C(C)(C)C)ccc3OCCN3CCN(C)CC3)C(=O)Nc3ccccc32)CC1 |  | 6.70 | 6.13 | fold change (FC) ([4]; filed as activator): 9.7
10 | COCCOc1ccc(C(C)(C)C)cc1C1(c2cc(C(C)(C)C)ccc2OCCOC)C(=O)Nc2ccccc21 |  | 5.34 | 6.15 | fold change (FC) [7]: 1.58
11 | CN(C)CCOc1ccc(C(C)(C)C)cc1C1(c2cc(C(C)(C)C)ccc2O)C(=O)N(CCN(C)C)c2ccccc21 (stereo not drawn) |  | 6.52 | 6.05 | fold change (FC) ([4]; filed as activator): 14.3
12 | CN1CCN(CCOc2ccc(C(C)(C)C)cc2C2(c3cc(C(C)(C)C)ccc3OCCN3CCN(C)CC3)C(=O)N(CCN3CCN(C)CC3)c3ccccc32)CC1 |  | 6.22 |  | fold change (FC) ([4]; filed as activator): 6.73
13 | CCN(CC)CCOc1ccc(C(C)(C)C)cc1C1(c2cc(C(C)(C)C)ccc2OCCN(CC)CC)C(=O)N(CCN(CC)CC)c2ccccc21 |  | ≥ 6.27 | 6.14 | fold change (FC) [8]: 14.3
14 | CN1CCN(CCOc2ccc(C(C)(C)C)cc2C2(c3cc(C(C)(C)C)ccc3O)C(=O)Nc3ccccc32)CC1 (stereo not drawn) |  | 6.12 | 5.85 | fold change (FC) [1]: 24.6
15 | CC(=O)OCCOc1ccc(C(C)(C)C)cc1C1(c2cc(C(C)(C)C)ccc2O)C(=O)Nc2ccccc21 (stereo not drawn) | 8.59 | 5.57 | 5.80 | 
16 | CC(C)(C)c1ccc(OCCN2CCOCC2)c(C2(c3cc(C(C)(C)C)ccc3OCCN3CCOCC3)C(=O)Nc3ccccc32)c1 |  | 5.77 | 5.62 | fold change (FC) [6]: 3; fold change (FC) [1]: 4.98
17 | CC(=O)OCCOc1ccc(C(C)(C)C)cc1C1(c2cc(C(C)(C)C)ccc2OCCOC(C)=O)C(=O)Nc2ccccc21 |  | 5.60 | 5.70 | fold change (FC) [7]: 2.07

Row | Compound | fold change (FC) [5] | pIC50 [2] | pIC50 [3] | other results
18 | CC(C)(C)c1ccc(OCCN2CCCC2)c(C2(c3cc(C(C)(C)C)ccc3OCCN3CCCC3)C(=O)N(CCN3CCCC3)c3ccccc32)c1 |  | 6.26 | 5.83 | fold change (FC) [8]: 12.1
19 | CC(C)(C)c1ccc(O)c(C2(c3cc(C(C)(C)C)ccc3O)C(=O)N(CCBr)c3ccccc32)c1 | 9.6 | 5.82 | 5.85 | 
20 | CC(C)(C)c1ccc(OCCN2CCCC2)c(C2(c3cc(C(C)(C)C)ccc3OCCN3CCCC3)C(=O)Nc3ccccc32)c1 |  | 6.19 | 6.10 | fold change (FC) [9]: 13.9
21 | CN(C)CCN1C(=O)C(c2cc(C(C)(C)C)ccc2O)(c2cc(C(C)(C)C)ccc2OCCN2CCCC2)c2ccccc21 (stereo not drawn) |  | ≥ 6.27 | ≥ 6.27 | fold change (FC) ([4]; filed as activator): 9.08
22 | CC(C)(C)c1ccc(O)c(C2(c3cc(C(C)(C)C)ccc3O)C(=O)N(CCN3CCOCC3)c3ccccc32)c1 | 4.3 | 5.66 | 5.80 | fold change (FC) [6]: 3
23 | CN(C)CCN1C(=O)C(c2cc(C(C)(C)C)ccc2O)(c2cc(C(C)(C)C)ccc2O)c2ccccc21 |  | 5.57 | < 4.70 | fold change (FC) [6]: 3; fold change (FC) [1]: 7.12
24 | CC(C)(C)c1ccc(O)c(C2(c3cc(C(C)(C)C)ccc3OCCN3CCCCC3)C(=O)Nc3ccccc32)c1 (stereo not drawn) |  | 6.15 | 5.47 | fold change (FC) [1]: 4.15
25 | CN(C)CCN1C(=O)C(c2cc(C(C)(C)C)ccc2OCCN2CCCC2)(c2cc(C(C)(C)C)ccc2OCCN2CCCC2)c2ccccc21 |  | 6.27 | 6.10 | fold change (FC) [8]: 11.8
26 | CC(C)(C)c1ccc(O)c(C2(c3cc(C(C)(C)C)ccc3OCCO)C(=O)Nc3ccccc32)c1 (stereo not drawn) | 10.8 | 5.06 | 5.54 | 
27 | CC(C)(C)c1ccc(O)c(C2(c3cc(C(C)(C)C)ccc3OCCN3CCNCC3)C(=O)Nc3ccccc32)c1 (stereo not drawn) |  | 6.05 | 5.82 | fold change (FC) [1]: 15.1
28 | CC(C)(C)c1ccc(O)c(C2(c3cc(C(C)(C)C)ccc3OCCN3CCOCC3)C(=O)Nc3ccccc32)c1 (stereo not drawn) | 5.69 | ≥ 6.27 | 5.78 | fold change (FC) [6]: 3
29 | CC(C)(C)c1ccc(OCCO)c(C2(c3cc(C(C)(C)C)ccc3OCCO)C(=O)Nc3ccccc32)c1 |  | 5.57 | 5.54 | fold change (FC) [1]: 3.42
30 | CC(C)(C)c1ccc(O)c(C2(c3cc(C(C)(C)C)ccc3OCCBr)C(=O)Nc3ccccc32)c1 (stereo not drawn) | 12.9 | 5.62 | 6.00 | 
31 | CC(C)(C)c1ccc(O)c(C2(c3cc(C(C)(C)C)ccc3OCCN3CCOCC3)C(=O)N(CCN3CCOCC3)c3ccccc32)c1 (stereo not drawn) |  | 5.44 | 5.70 | fold change (FC) [7]: 31.9
32 | CC(C)(C)c1ccc(O)c(C2(c3cc(C(C)(C)C)ccc3OCCBr)C(=O)N(CCBr)c3ccccc32)c1 (stereo not drawn) |  | 5.34 | 6.15 | fold change (FC) [7]: 1.99
33 | COCOc1ccc(C(C)(C)C)cc1C1(c2cc(C(C)(C)C)ccc2O)C(=O)Nc2ccccc21 (stereo not drawn) | 1.21 | 5.38 | 5.66 | 

Second part, led by results:

Row | fold change (FC) [5] | Compound | pIC50 [2] | pIC50 [3] | other results
34 | 11.4 | CC(C)(C)c1ccc(OCCN2CCNCC2)c(C2(c3cc(C(C)(C)C)ccc3OCCN3CCNCC3)C(=O)Nc3ccccc32)c1 | 6.10 | 5.82 | 
35 | 9.09 | CC(C)(C)c1ccc(O)c(C2(c3cc(C(C)(C)C)ccc3OCCN3CCCC3)C(=O)N(CCN3CCCC3)c3ccccc32)c1 (stereo not drawn) | 5.44 | 5.14 | 
36 | 10.8 | CC(C)(C)c1ccc(OCCN2CCOCC2)c(C2(c3cc(C(C)(C)C)ccc3OCCN3CCOCC3)C(=O)N(CCN3CCOCC3)c3ccccc32)c1 | 5.64 | 5.57 | fold change (FC) [6]: 3
